Results from US8796320B2, “1,3,4-Oxadiazole-2-carboxamide compound” (General Incorporated Association Pharma Valley Project …, priority 2009, dated 2014).

System: STAT3
Test: STAT3 transcription inhibition test (reporter gene method)
Type: cell-based
Conditions: compound at 100 μM, STAT3 reporter HeLa stable cell line, oncostatin M 10 ng/mL, 4 hours; for inhibition at 100 µM: Homo sapiens, read-out: STAT3 transcription inhibitory activity (%)
Description: The inhibition of STAT3 transcription was evaluated by using STAT3 reporter HeLa stable cell line (Panomics Inc., catalog No. RC0003), a cell line for the reporter gene method, and performing the following method according to the appendix included therein.
STAT3, reporter HeLa stable cell line subcultured and maintained in a Dulbecco's modified Eagle's medium (DMEM) containing 10% fetal bovine serum, 100 units/mL penicillin, and 100 μg/mL streptomycin was inoculated at a concentration of 40000 cells/well to a 96-well plate (white) and attached to the plate by overnight incubation at 37° C. under 5% CO2. After addition of each evaluation compound adjusted to various concentrations (adjusted with a DMSO solution), the cells were precultured for 1 hour. Then, oncostatin M for activating STAT3 was added at a final concentration 10 ng/mL, and the cells were further cultured at 37° C. under 5% CO2 for 4 hours. Luciferase activity derived from the cells was determined using Steady-Glo Luciferase Assay System (Promega Corp.), and STAT3 transcriptional activity scores were calculated according to the following formula: STAT3 transcriptional activity score (%)=100×(Lchem−L0)/(LDMSO−L0) • L0: luminescence intensity obtained without stimulation with oncostatin M • Lchem: luminescence intensity obtained by the addition of a test sample • LDMSO: luminescence intensity obtained by the addition of only a solvent for dissolving a test sample
The test results were indicated in the rate of inhibition of STAT3 transcription by each compound at a concentration of 100 μM.

Row | Compound | inhibition at 100 µM [%] | STAT3 transcription inhibitory activity (%)
1 | O=C(Nc1nnc(-c2ccco2)o1)c1cccc(-c2ccccc2)c1 [Compound Ia-1, N-[5-(2-Furyl)-1,3,4-oxadiazol-2-yl]-3-biphenylcarboxamide] | 60 | 
2 | O=C(Nc1nnc(-c2ccco2)o1)c1cccc(-c2ccc(F)cc2)c1 [Compound Ia-10, 4′-Fluoro-N-[5-(2-furyl)-1,3,4-oxadiazol-2-yl]-3-biphenylcarboxamide] | 97 | 
3 | COc1ccc(-c2cccc(C(=O)Nc3nnc(-c4ccco4)o3)c2)cc1 [Compound Ia-16, N-[5-(2-Furyl)-1,3,4-oxadiazol-2-yl]-4′-methoxy-3-biphenylcarboxamide] | 57 | 
4 | Cc1ccc(-c2cccc(C(=O)Nc3nnc(-c4ccco4)o3)c2)o1 [Compound Ia-34, N-[5-(2-Furyl)-1,3,4-oxadiazol-2-yl]-3-(5-methyl-2-furyl)benzenecarboxamide] | 78 | 
5 | O=C(Nc1nnc(-c2ccco2)o1)c1cccc(-c2ccc3c(c2)OCO3)c1 [Compound Ia-42, N-[5-(2-Furyl)-1,3,4-oxadiazol-2-yl]-3-(3,4-methylenedioxyphenyl)benzenecarboxamide] | 88 | 
6 | O=C(Nc1nnc(-c2ccco2)o1)c1cccc(-c2ccc(CCN3CCOCC3)cc2)c1 [Compound Ia-90, N-[5-(2-Furyl)-1,3,4-oxadiazol-2-yl]-4′-(2-morpholinoethyl)-3-biphenylcarboxamide] | 97 | 
7 | O=C(Nc1nnc(-c2ccco2)o1)c1ccc(-c2cccc(Cl)c2)o1 [Compound Ic-4, 5-(3-Chlorophenyl)-N-[5-(2-furyl)-1,3,4-oxadiazol-2-yl]-2-furancarboxamide] | 81 | 
8 | CCOC(=O)c1ccc(-c2ccc(C(=O)Nc3nnc(-c4ccco4)o3)o2)cc1 [Compound Ic-12, 5-(4-Ethoxycarbonylphenyl)-N-[5-(2-furyl)-1,3,4-oxadiazol-2-yl]-2-furancarboxamide] | 73 | 
9 | O=C(Nc1nnc(-c2ccco2)o1)c1ccc(-c2ccc([N+](=O)[O-])cc2Cl)o1 [Compound Ic-14, 5-(2-Chloro-4-nitrophenyl)-N-[5-(2-furyl)-1,3,4-oxadiazol-2-yl]-2-furancarboxamide] | 51 | 
10 | O=C(Nc1nnc(-c2ccco2)o1)c1ccc(-c2cc([N+](=O)[O-])ccc2Cl)o1 [Compound Ic-19, 5-(2-Chloro-5-nitrophenyl)-N-[5-(2-furyl)-1,3,4-oxadiazol-2-yl]-2-furancarboxamide] | 56 | 
11 | O=C(Nc1nnc(-c2ccco2)o1)c1ccc(-c2cc(Cl)cc(Cl)c2)o1 [Compound Ic-21, 5-(3,5-Dichlorophenyl)-N-[5-(2-furyl)-1,3,4-oxadiazol-2-yl]-2-furancarboxamide] | 64 | 
12 | Cc1oc(-c2ccccc2)cc1C(=O)Nc1nnc(-c2ccco2)o1 [Compound Ic-22, N-[5-(2-Furyl)-1,3,4-oxadiazol-2-yl]-2-methyl-5-phenyl-3-furancarboxamide] | 65 | 
13 | O=C(Nc1nnc(-c2ccco2)o1)c1nc(-c2ccc(F)cc2)n2c1CCCCC2 [Compound Ic-26] |  | 58
